The record followed here is ChEMBL document CHEMBL3046936, “In vitro inhibition studies of phytoene desaturase by bleaching ketomorpholine derivatives” (J Agric Food Chem, 2001).

Calls of active or inactive are those of the source. No cut-off for these calls is given here. Where only a bound is given, the exact number is not on record here.

In one assay the test system is Chenopodium album. Briefly: Pre-emergence herbicidal activity against Chenopodium album after 20 days. Type of assay: functional.
The test system of another assay is Amaranthus retroflexus. Briefly: Pre-emergence herbicidal activity against Amaranthus retroflexus after 20 days. Format: functional.
The next assay relates to Ipomoea hederacea. Briefly: Pre-emergence herbicidal activity against Ipomoea hederacea (ivy-leaved morning glory) after 20 days. Format: functional.
A further assay has as its system Abutilon theophrasti. Briefly: Preemergence herbicidal activity against Abutilon theophrasti (velvetleaf) after 20 days. Format: functional.
For the next assay, the system named is Senna obtusifolia. Briefly: Preemergence herbicidal activity against Senna obtusifolia (sicklepod) after 20 days. Format: functional.
In another assay the test system is Galium aparine. Briefly: Pre-emergence herbicidal activity against Galium aparine after 20 days. Type of assay: functional.
For a further assay, the system named is Xanthium strumarium. Briefly: Pre-emergence herbicidal activity against Xanthium strumarium (cocklebur) after 20 days. Type of assay: functional.
For assay [1], the target named is 15-cis-phytoene desaturase (Synechococcus elongatus (strain PCC 7942) (Anacystis nidulans R2), UniProt P26294). Briefly: Inhibition of Synechococcus PCC 7942 phytoene desaturase expressed in Escherichia coli JM 101 by HPLC analysis. As to conditions: read-out: I50.
The nature of assay [2]: Ratio of ED50 for Xanthium strumarium to ED50 for Galium aparine. Format: functional.
Assay [3] in a line: Ratio of ED50 for Xanthium strumarium to ED50 for Cassia obtusifolia. Type of assay: functional.
Assay [4] in a line: Ratio of ED50 for Xanthium strumarium to ED50 for Chenopodium album. Format: functional.
The target of assay [5] is 15-cis-phytoene desaturase (Synechococcus elongatus (strain PCC 7942) (Anacystis nidulans R2)) (UniProt P26294). Briefly: Inhibition of Synechococcus PCC 7942 phytoene desaturase expressed in Escherichia coli JM 101 assessed as decrease in zeta-carotene content by HPLC analysis.
Assay [6] shares this target. Briefly: Non-competitive inhibition of Synechococcus PCC 7942 phytoene desaturase expressed in Escherichia coli JM 101 by Lineweaver-Burk plot analysis.

Chain of 15-cis-phytoene desaturase (P26294 whole entry): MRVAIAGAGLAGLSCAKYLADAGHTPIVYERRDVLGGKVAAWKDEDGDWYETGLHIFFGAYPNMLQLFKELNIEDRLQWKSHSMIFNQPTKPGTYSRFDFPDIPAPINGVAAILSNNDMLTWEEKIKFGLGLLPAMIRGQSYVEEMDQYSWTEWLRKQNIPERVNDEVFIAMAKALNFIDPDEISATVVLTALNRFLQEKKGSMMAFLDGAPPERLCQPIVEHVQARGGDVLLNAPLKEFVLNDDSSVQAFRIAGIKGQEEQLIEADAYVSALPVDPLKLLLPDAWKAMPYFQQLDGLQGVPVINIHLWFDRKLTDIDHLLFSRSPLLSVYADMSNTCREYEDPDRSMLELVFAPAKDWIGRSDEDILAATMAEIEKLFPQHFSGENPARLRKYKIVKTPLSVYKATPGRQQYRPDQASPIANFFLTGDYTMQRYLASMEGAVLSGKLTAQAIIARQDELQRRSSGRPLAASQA
Chain of 15-cis-phytoene desaturase (Synechococcus elongatus (strain PCC 7942) (Anacystis nidulans R2)) (P26294 whole entry): as above

Consider `O=C1NCCOC1SCc1cccc(C(F)(F)F)c1` (racemic), for which the ED50 in the assay with Chenopodium album, in the assay on Amaranthus retroflexus, in the assay with Ipomoea hederacea, in the assay with Abutilon theophrasti, in the assay on Senna obtusifolia and in the assay on Galium aparine was over 10000 g/ha each time. The compound also displayed an ED50 with Xanthium strumarium of over 10000 g/ha. In addition, the IC50 in assay [1] was found to be 3.2 µM.
Consider `C[C@H]1CO[C@@H](Cc2cccc(C(F)(F)F)c2)C(=O)N1`, for which the ED50 with Chenopodium album was 500 g/ha; with Amaranthus retroflexus it was 600 g/ha; with Ipomoea hederacea, 1500 g/ha; with Abutilon theophrasti, 500 g/ha; in the assay with Senna obtusifolia, 1550 g/ha; in the assay with Galium aparine, 1500 g/ha. For the same compound, the ED50 in the assay on Xanthium strumarium is 2300 g/ha. Moreover, in [1], the IC50 came out at 3.8 µM.
Take `CN1CCOC(c2cccc(C(F)(F)F)c2)C1=O` (racemic): the ED50 with Chenopodium album is reported as 10000 g/ha; with Amaranthus retroflexus it was over 10000 g/ha; in the assay on Ipomoea hederacea, over 10000 g/ha; with Abutilon theophrasti it was 5500 g/ha; with Senna obtusifolia, over 10000 g/ha; in the assay on Galium aparine, over 10000 g/ha. In the assay on Xanthium strumarium, this compound returned an ED50 of 9500 g/ha. In addition, the IC50 in assay [1] was over 100 µM.
For the compound `C[C@@H]1CO[C@@H](Cc2cccc(C(F)(F)F)c2)C(=O)N1`, the ED50 in the assay on Chenopodium album is recorded as over 10000 g/ha; in the assay on Amaranthus retroflexus, over 10000 g/ha; with Ipomoea hederacea it was 4000 g/ha; in the assay on Senna obtusifolia, over 10000 g/ha; in the assay on Galium aparine, 4000 g/ha; in the assay on Xanthium strumarium, over 10000 g/ha. For the same compound, the IC50 in assay [1] worked out at 19 µM.
In the case of `CN1CCOC(Cc2cccc(C(F)(F)F)c2)C1=O` (racemic), the Ratio ED50 in [2], in assay [3] and in [4] was 15 in each case. Also, the ED50 is 450 g/ha in the assay on Chenopodium album; 1250 g/ha in the assay with Amaranthus retroflexus; 500 g/ha in the assay on Ipomoea hederacea; 1400 g/ha in the assay with Abutilon theophrasti; 500 g/ha with Senna obtusifolia; 500 g/ha in the assay with Galium aparine. In the assay with Xanthium strumarium, this compound had an ED50 of 8900 g/ha. Besides, in assay [1], the IC50 is over 100 µM.
`O=C1NCCOC1Sc1cccc(C(F)(F)F)c1` (racemic): the ED50 in the assay with Chenopodium album was found to be 850 g/ha; in the assay with Amaranthus retroflexus it was 780 g/ha; in the assay on Ipomoea hederacea, 4800 g/ha; with Abutilon theophrasti, 1000 g/ha; in the assay on Senna obtusifolia, 2500 g/ha; in the assay on Galium aparine, 4800 g/ha. Moreover, the ED50 in the assay with Xanthium strumarium is over 10000 g/ha. Also, the IC50 in assay [1] came out at 8.5 µM.
`C[C@H]1CO[C@H](Cc2cccc(C(F)(F)F)c2)C(=O)N1`: the ED50 amounted to 25 g/ha in the assay on Chenopodium album; 50 g/ha in the assay on Amaranthus retroflexus; 130 g/ha in the assay on Ipomoea hederacea; 50 g/ha in the assay on Abutilon theophrasti; 200 g/ha in the assay on Senna obtusifolia; 130 g/ha with Galium aparine. The compound also gave an ED50 with Xanthium strumarium of 340 g/ha. Besides, the inhibition result in assay [5] and in [6] was “Active” each time. For the same compound, the IC50 in assay [1] came to 0.17 µM.
Turning to `O=C1NCCOC1Cc1cccc(C(F)(F)F)c1` (racemic), the ED50 with Chenopodium album is 140 g/ha; in the assay on Amaranthus retroflexus, 80 g/ha; in the assay on Ipomoea hederacea it was 380 g/ha; in the assay with Abutilon theophrasti, 150 g/ha; in the assay on Senna obtusifolia it was 350 g/ha; in the assay on Galium aparine it was 380 g/ha. This compound also returned an ED50 with Xanthium strumarium of 800 g/ha. For the same compound, in [1], the IC50 came out at 6.5 µM.
